From US12215067B2, “Chemical compounds targeting the eye and use thereof in the treatment of eye diseases” (BIOPHYTIS, priority 2019, dated 2025)

What was measured:
[1] = Pharmacokinetic study via oral administration in mice, ocular concentrations; type: in vivo, mice C57BL/6; conditions: for Tmax: C57BL/6, mouse, eye, po; for Eye Exposure 50 mg/kg p.o. AUC: Table 3, repeats the eye exposure of Table 2
Experimental: (§1) The pharmacokinetic study of the chemical compounds (C) following the oral administration thereof was conducted using mice C57BL/6 (January, 53940 The Genest Saint Isle, France). The chemical compounds derived from norbixin (C) were administered at a dose of 50 mg/kg of body weight. After administration, the blood was sampled at the tail at t=0.25 h; 0.5 h; 1 h; 3 h; 6 h and 8 h. The blood samples were centrifuged and the plasmas taken. The dosage of the plasma samples made it possible to determine pharmacokinetic parameters, namely Cmax, which corresponds to the maximum concentration observed after the administration of the molecule, Tmax which is the time required to reach maximum concentration after administration of the molecule and the AUC: the area under the curve which corresponds to the plasma exposure (FIG. 2).
In parallel, the ocular concentrations of the chemical compounds derived from norbixin (C) were dosed in the following way (FIG. 1): both eyes of each mouse were taken in Precellys tubes and stored at −80° C. until the time of dosing. The eyes are then ground in the Precellys tubes with a bench homogenizer, Fast-prep (Fischer Scientific, Hampton, United States) in a mixture of organic solvents, in a first step with 500 μL of chloroform/methanol (1/1, v/v) then 500 μL of chloroform/dichloromethane (1/1, v/v). The supernatants are recovered at each step and transferred to a 96-well plate of 2 mL.
For the quantification of the chemical compounds C, a calibration curve is carried out with 8 standards (5 to 5,000 ng/mL) in the same organic solvent mixtures and transferred (100 μL) to the 96-well plate of 2 mL.
The supernatants and standards are evaporated in a EZ2 (Genevac, Ipswich, United Kingdom), without heating, then taken with 100 μL of DMSO/methanol (20:80, v/v) before being transferred to a 96-well plate of 200 μL.
(§2) The LC-MSMS analysis is carried out with a HPLC 1200 Infinity chain (Agilent Technologies, Santa-Clara, United States), a UV detector and a mass spectrometer QQQ6420 (Agilent Technologies Santa-Clara, United States). The injection volume is 5 μL. The chemical compounds C are eluted on an inverse phase column C18 (2.1*50 mm, particles 3 μm; Ace-C18-Excel, AIT) with a gradient of acetonitrile and water (containing 0.1% formic acid) and a flow rate of 0.3 mL/min. The conditions of the gradient can change according to the chemical compound C analyzed. The UV detector analyzes at 460 nm and the mass spectrometer analyzed in Mode MRM—Positive.
(§3) Table 2 discloses the pharmacokinetic results of the chemical compounds C following the administration p.o. 50 mg/kg in D-α-Tocopheryl polyethylene glycol 1000 succinate (VitE-TPGS) 20% in a sodium bicarbonate buffer (0.1M).

[2] = Pharmacokinetic study via oral administration in mice, plasma concentrations; type: in vivo, mice C57BL/6; conditions: C57BL/6, mouse, in vivo, po, 50 mg/kg
Experimental: as §1, §2, §3

[3] = system: primary cultures of RPE of adult pigs; assay: In vitro photoprotection of RPE cells illuminated with blue light in the presence of A2E; type: cell-based, pig; conditions: Sus scrofa, RPE, A2E 30 μM, survival 24 h after illumination; for viability at 5 µM: 5 μM compound; for viability at 10 µM: 10 μM compound; for viability at 20 µM: 20 μM compound
Description: In addition to better distribution in the target-tissue, selecting new compounds must also be based on good photo-protective activity that limits the loss of the cells of the RPE and thus reducing the retinal degeneration observed during the AMD and other degenerative diseases such as Retinitis pigmentosa and Stargardt's disease. At the cellular level, on cultures of cells the RPE coming from pig retina, Fontaine et al. (2016) have shown that a treatment with norbixin (BIO201) protects the cells of the RPE against apoptosis following an illumination in the presence of A2E (80% survival 24 h after exposure). This same screening test according to the percentage of photoprotection was used so as to determine its modulation by and the chemical compounds derived from norbixin (C) object of the present invention in comparison with the photo-protective effect of norbixin and characterize these modulations from a statical standpoint.
The test in vitro described hereinabove and intended to study the photo-protective effect of norbixin was used so as to quantify the photo-protective effects of the various chemical compounds derived from norbixin (C) on the cells of the RPE illuminated with blue light in the presence of A2E (FIG. 3). The photo-protective effect of the molecules was evaluated in a phototoxicity cellular model induced by treatment by A2E followed by an illumination with blue light. The term “blue radiation” means the radiation corresponding to the blue band of the visible light spectrum, i.e. of a wavelength comprised between 435 and 490 nm. This model uses primary cultures of RPE of adult pigs. The cell survival is quantified thanks to a test of cellular viability. At −48 h the compounds to be tested (in solution at 5 mM in the DMSO) are added to obtain the final concentrations of 1 to 20 μM) then at −19 h of the A2E (final concentration 30 μM) and the cells (time 0 h) are illuminated. 24 h after the survival of the cells is measured. The acquisition of images, as well as the processing thereof, are carried out using a fluorescence microscope controlled by the Metamorph software and a dedicated quantification program. The experiments are conducted on a 96-well microplate in quadruplicate and the experiment is reproduced at least four times. The results are expressed in the form of a ratio representing the number of living cells in the wells treated by the molecules to be tested, divided by the number of living cells in the controlled wells (treated by the dilution medium without A2E). This test made it possible hereinabove to reveal the photo-protective activity of norbixin (Fontaine et al. 2016).

[4] = mice, p.o. 50 mg/kg in VitE-TPGS 20% in sodium bicarbonate buffer (0.1M)

Tmax [1, 4] [min] | Eye Exposure 50 mg/kg p.o. AUC [1] [ng · h/eye] | Eye CMax [1, 4] [ng/eye] | Cmax [2] [ng/mL] | Plasma Exposure [2] [µg·h/mL] | Tmax [2] [min] | Eye Exposure ([1]; mice, p.o. 50 mg/kg in VitE-TPGS 20% in sodium bicarbonate buffer (0.1M), area under the curve) [ng · h/eye] | Compound | viability at 5 µM [3] [%] | viability at 10 µM [3] [%] | viability at 20 µM [3] [%]
60 | 533.2 | 64.3 | 30400 | 108.1 | 60 |  | CC(=C/C=C/C(C)=C/C=C/C=C(C)/C=C/C=C(C)/C=C/C(=O)NCCN1CCOCC1)/C=C/C(=O)O [C10, 1-[2-morpholinoethanamido](2E,4E,6E,8E,10E,12E,14E,16Z,18E)-4,8,13,17-tetramethylicosa-2,4,6,8,10,12,14,16,18-nonaenedioate] | 15.5 | 27.4 | 80.3
60 | 538.4 | 50.7 | 29300 | 186.3 | 30 |  | CC(=C/C=C/C(C)=C/C=C/C=C(C)/C=C/C=C(C)/C=C/C(=O)N1CCC(O)CC1)/C=C/C(=O)O [C12, 1-[4-hydroxypiperidinamido](2E,4E,6E,8E,10E,12E,14E,16Z,18E)-4,8,13,17-tetramethylicosa-2,4,6,8,10,12,14,16,18-nonaenedioate] | 7.7 | 14.3 | 59.6
60 | 461.1 | 60.7 | 27900 | 139.7 | 30 |  | CC(=C/C=C/C(C)=C/C=C/C=C(C)/C=C/C=C(C)/C=C/C(=O)NCC(C)(C)N1CCOCC1)/C=C/C(=O)O [C13, 1-[2-methyl-2-(4-morpholinyl)propylamido](2E,4E,6E,8E,10E,12E,14E,16Z,18E)-4,8,13,17-tetramethylicosa-2,4,6,8,10,12,14,16,18-nonaenedioate] | 8 | 0.5 | 8
60 | 322.5 | 43.2 | 19000 | 162.2 | 30 |  | CC(=C/C=C/C(C)=C/C=C/C=C(C)/C=C/C=C(C)/C=C/C(=O)N1CCC(CO)CC1)/C=C/C(=O)O [C14, 1-[4-hydroxymethylpiperidinamido](2E,4E,6E,8E,10E,12E,14E,16Z,18E)-4,8,13,17-tetramethylicosa-2,4,6,8,10,12,14,16,18-nonaenedioate] | 3.1 | 46.8 | 79.3
30 | 108.5 | 22.8 | 17300 | 46.99 | 30 | 108.5 | CC(=C/C=C/C(C)=C/C=C/C=C(C)/C=C/C=C(C)/C=C/C(=O)N1C[C@@H](C)O[C@@H](C)C1)/C=C/C(=O)O [C15] | 5.4 | 10 | 58.5
30 | 8.7 | 7.4 | 10500 | 13.23 | 60 |  | CC(=C/C=C/C(C)=C/C=C/C=C(C)/C=C/C=C(C)/C=C/C(=O)NCCc1ccc(O)cc1)/C=C/C(=O)O [C16, 1-[4-hydroxyphenylethanamido](2E,4E,6E,8E,10E,12E,14E,16Z,18E)-4,8,13,17-tetramethylicosa-2,4,6,8,10,12,14,16,18-nonaenedioate] | 70.2 | 81.7 | 26.8
120 | 307.8 | 27.7 | 61600 | 948.84 | 30 |  | CC(=C/C=C/C(C)=C/C=C/C=C(C)/C=C/C=C(C)/C=C/C(=O)N1CCC(C(=O)O)CC1)/C=C/C(=O)O [C18, 1-[4-carboxypiperidinamido](2E,4E,6E,8E,10E,12E,14E,16Z,18E)-4,8,13,17-tetramethylicosa-2,4,6,8,10,12,14,16,18-nonaenedioate] | 27.3 | 43.1 | 63.8
30 | 37.5 | 5.7 | 6620 | 22.8 | 15 |  | CC(=C/C=C/C(C)=C/C=C/C=C(C)/C=C/C=C(C)/C=C/C(=O)N[C@H]1CC[C@H](O)CC1)/C=C/C(=O)O [C19, 1-[(E)-4-hydroxycyclohexamido](2E,4E,6E,8E,10E,12E,14E,16Z,18E)-4,8,13,17-tetramethylicosa-2,4,6,8,10,12,14,16,18-nonaenedioate] | 60.6 | 60.6 | 79.9
120 | 421.9 | 80.4 | 35000 | 160.4 | 60 |  | COC1CCCN(C(=O)/C=C/C(C)=C/C=C/C(C)=C/C=C/C=C(C)/C=C/C=C(C)\C=C\C(=O)O)C1 (stereo not shown) [C20, 1-[3-methoxypiperidinamido](2E,4E,6E,8E,10E,12E,14E,16Z,18E)-4,8,13,17-tetramethylicosa-2,4,6,8,10,12,14,16,18-nonaenedioate] | 65.6 | 65.6 | 79
120 | 358.5 | 42.1 | 12800 | 37.25 | 15 |  | CCCOC1CCN(C(=O)/C=C/C(C)=C/C=C/C(C)=C/C=C/C=C(C)/C=C/C=C(C)\C=C\C(=O)O)CC1 [C22, 1-[4-n-propoxypiperidinamido](2E,4E,6E,8E,10E,12E,14E,16Z,18E)-4,8,13,17-tetramethylicosa-2,4,6,8,10,12,14,16,18-nonaenedioate] | 64.5 | 72.8 | 66
